The target in assay [1] is T1, Interleukin-1 receptor-associated kinase 4 (Homo sapiens) (UniProt Q9NWZ3).
T1 sequence (whole entry): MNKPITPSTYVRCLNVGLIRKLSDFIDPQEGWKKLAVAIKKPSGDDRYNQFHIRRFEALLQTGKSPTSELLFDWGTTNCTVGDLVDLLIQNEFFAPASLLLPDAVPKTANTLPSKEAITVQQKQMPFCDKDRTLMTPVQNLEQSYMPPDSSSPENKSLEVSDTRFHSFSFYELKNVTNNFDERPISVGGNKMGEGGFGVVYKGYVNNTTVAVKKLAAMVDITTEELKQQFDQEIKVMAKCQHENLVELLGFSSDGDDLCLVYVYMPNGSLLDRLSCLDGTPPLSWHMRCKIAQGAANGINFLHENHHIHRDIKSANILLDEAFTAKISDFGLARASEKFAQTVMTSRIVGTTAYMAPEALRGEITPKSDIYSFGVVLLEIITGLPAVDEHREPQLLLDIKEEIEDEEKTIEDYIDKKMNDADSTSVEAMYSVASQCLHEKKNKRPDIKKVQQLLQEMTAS
Put plainly: Inhibition of human IRAK4 catalytic domain expressed in baculovirus assessed as substrate phosphorylation using fluorescence-labelled peptides as substrate at 0.2 uM after 90 mins by microfluidic peptide phosphorylation assay.

A further assay is filed under the species Homo sapiens. Put plainly: Inhibition of human P70S6K catalytic domain expressed in baculovirus assessed as substrate phosphorylation using fluorescence-labelled peptides as substrate at 420 uM after 90 mins by microfluidic peptide phosphorylation assay.
In assay [2] the target is Tyrosine-protein kinase ABL2 (Homo sapiens) (UniProt P42684). In words: Inhibition of human truncated Arg expressed in baculovirus assessed as substrate phosphorylation using fluorescence-labelled peptides as substrate at 95 uM after 90 mins by microfluidic peptide phosphorylation assay.
Assay [3] deals with Fibroblast growth factor receptor 1 (Homo sapiens) (UniProt P11362). Put plainly: Inhibition of human FGFR1 catalytic domain expressed in baculovirus assessed as substrate phosphorylation using fluorescence-labelled peptides as substrate at 9 uM after 90 mins by microfluidic peptide phosphorylation assay.
Assay [4] has as its target Platelet-derived growth factor receptor alpha (Homo sapiens) (UniProt P16234). Put plainly: Inhibition of human PDGFR alpha catalytic domain expressed in baculovirus assessed as substrate phosphorylation using fluorescence-labelled peptides as substrate at 9 uM after 90 mins by microfluidic peptide phosphorylation assay.
Assay [5] has as its target T2, Serine/threonine-protein kinase 3 (Homo sapiens) (UniProt Q13188).
T2 sequence (whole entry): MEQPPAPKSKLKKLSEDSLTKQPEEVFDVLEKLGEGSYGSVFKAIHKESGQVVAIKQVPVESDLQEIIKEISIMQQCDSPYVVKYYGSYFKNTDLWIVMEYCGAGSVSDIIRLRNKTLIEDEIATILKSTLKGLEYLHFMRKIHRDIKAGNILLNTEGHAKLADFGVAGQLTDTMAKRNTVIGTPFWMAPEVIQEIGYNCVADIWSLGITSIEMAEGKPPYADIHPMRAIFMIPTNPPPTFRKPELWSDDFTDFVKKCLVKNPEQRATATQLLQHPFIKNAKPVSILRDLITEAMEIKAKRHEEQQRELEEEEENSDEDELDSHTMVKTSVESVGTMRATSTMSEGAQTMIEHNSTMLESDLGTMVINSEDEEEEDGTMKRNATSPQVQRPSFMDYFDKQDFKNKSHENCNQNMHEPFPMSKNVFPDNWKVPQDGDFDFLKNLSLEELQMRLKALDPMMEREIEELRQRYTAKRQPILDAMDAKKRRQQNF
In words: Inhibition of human full length MST2 expressed in baculovirus assessed as substrate phosphorylation using fluorescence-labelled peptides as substrate at 8 uM after 90 mins by microfluidic peptide phosphorylation assay.

Assay [6] deals with Fibroblast growth factor receptor 3 (Homo sapiens) (UniProt P22607). In words: Inhibition of human FGFR3 catalytic domain expressed in baculovirus assessed as substrate phosphorylation using fluorescence-labelled peptides as substrate at 8 uM after 90 mins by microfluidic peptide phosphorylation assay.
Assay [7] concerns the target Tyrosine-protein kinase ABL1 (Homo sapiens) (UniProt P00519). Put plainly: Inhibition of human full-length ABL expressed in baculovirus assessed as substrate phosphorylation using fluorescence-labelled peptides as substrate at 8 uM after 90 mins by microfluidic peptide phosphorylation assay.
The target in assay [8] is T3, Serine/threonine-protein kinase D3 (Homo sapiens) (UniProt O94806).
T3 sequence (whole entry): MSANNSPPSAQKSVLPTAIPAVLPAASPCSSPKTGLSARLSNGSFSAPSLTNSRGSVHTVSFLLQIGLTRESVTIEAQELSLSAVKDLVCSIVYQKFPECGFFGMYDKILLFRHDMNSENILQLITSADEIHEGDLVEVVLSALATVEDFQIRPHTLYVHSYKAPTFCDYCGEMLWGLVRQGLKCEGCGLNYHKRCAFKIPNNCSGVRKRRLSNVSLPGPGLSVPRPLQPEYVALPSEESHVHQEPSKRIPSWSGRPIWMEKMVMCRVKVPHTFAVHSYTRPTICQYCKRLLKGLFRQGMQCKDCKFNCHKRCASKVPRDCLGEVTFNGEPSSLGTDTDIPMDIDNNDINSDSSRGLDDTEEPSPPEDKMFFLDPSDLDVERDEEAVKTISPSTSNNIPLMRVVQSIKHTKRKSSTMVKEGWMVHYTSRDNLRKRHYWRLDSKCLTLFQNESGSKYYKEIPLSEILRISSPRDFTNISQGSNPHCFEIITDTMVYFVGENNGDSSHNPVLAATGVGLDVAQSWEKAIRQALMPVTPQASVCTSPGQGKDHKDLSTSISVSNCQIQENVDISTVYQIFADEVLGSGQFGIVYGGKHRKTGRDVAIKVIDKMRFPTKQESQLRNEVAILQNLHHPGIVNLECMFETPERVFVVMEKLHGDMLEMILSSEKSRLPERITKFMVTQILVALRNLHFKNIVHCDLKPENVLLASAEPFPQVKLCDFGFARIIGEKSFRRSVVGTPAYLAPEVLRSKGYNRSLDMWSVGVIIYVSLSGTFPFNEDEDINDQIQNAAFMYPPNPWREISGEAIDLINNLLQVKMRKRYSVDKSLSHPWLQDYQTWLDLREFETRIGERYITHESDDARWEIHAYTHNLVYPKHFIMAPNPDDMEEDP
Put plainly: Inhibition of human full length PKD3 expressed in baculovirus assessed as substrate phosphorylation using fluorescence-labelled peptides as substrate at 0.06 uM after 90 mins by microfluidic peptide phosphorylation assay.

In assay [9] the target is Serine/threonine-protein kinase PAK 2 (Homo sapiens) (UniProt Q13177). Put plainly: Inhibition of human truncated PAK2 expressed in Escherichia coli cell assessed as substrate phosphorylation using fluorescence-labelled peptides as substrate at 2 uM after 90 mins by microfluidic peptide phosphorylation assay.
Assay [10] deals with T2, Serine/threonine-protein kinase 3 (Homo sapiens). Put plainly: Inhibition of human full length MST2 expressed in baculovirus assessed as substrate phosphorylation using fluorescence-labelled peptides as substrate at 70 uM after 90 mins by microfluidic peptide phosphorylation assay.

SMILES strings stand for the structures.

Sequence of Fibroblast growth factor receptor 1 (Homo sapiens) (P11362 22-822 limits assumed): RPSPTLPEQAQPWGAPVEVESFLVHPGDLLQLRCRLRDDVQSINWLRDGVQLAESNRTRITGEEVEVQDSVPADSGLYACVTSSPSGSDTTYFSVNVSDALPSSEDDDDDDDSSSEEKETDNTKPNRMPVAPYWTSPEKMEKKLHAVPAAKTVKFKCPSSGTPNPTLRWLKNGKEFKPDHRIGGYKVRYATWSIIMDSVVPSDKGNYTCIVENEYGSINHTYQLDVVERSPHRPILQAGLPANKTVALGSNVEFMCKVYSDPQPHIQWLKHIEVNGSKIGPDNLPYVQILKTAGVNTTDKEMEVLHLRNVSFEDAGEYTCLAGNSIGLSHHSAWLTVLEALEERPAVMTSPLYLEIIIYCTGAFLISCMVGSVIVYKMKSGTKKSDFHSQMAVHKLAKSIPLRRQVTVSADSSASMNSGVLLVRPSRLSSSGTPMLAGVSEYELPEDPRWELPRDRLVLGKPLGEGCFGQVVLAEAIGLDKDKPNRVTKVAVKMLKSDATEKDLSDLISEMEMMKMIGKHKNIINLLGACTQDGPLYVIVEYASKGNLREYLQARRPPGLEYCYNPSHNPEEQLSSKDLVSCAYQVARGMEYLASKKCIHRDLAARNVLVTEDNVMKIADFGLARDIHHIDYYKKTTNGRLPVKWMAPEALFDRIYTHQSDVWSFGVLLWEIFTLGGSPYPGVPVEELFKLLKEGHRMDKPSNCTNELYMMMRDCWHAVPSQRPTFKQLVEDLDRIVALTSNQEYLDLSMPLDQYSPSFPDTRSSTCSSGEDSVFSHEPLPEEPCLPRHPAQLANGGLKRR
Sequence of Tyrosine-protein kinase ABL1 (Homo sapiens) (P00519 whole entry): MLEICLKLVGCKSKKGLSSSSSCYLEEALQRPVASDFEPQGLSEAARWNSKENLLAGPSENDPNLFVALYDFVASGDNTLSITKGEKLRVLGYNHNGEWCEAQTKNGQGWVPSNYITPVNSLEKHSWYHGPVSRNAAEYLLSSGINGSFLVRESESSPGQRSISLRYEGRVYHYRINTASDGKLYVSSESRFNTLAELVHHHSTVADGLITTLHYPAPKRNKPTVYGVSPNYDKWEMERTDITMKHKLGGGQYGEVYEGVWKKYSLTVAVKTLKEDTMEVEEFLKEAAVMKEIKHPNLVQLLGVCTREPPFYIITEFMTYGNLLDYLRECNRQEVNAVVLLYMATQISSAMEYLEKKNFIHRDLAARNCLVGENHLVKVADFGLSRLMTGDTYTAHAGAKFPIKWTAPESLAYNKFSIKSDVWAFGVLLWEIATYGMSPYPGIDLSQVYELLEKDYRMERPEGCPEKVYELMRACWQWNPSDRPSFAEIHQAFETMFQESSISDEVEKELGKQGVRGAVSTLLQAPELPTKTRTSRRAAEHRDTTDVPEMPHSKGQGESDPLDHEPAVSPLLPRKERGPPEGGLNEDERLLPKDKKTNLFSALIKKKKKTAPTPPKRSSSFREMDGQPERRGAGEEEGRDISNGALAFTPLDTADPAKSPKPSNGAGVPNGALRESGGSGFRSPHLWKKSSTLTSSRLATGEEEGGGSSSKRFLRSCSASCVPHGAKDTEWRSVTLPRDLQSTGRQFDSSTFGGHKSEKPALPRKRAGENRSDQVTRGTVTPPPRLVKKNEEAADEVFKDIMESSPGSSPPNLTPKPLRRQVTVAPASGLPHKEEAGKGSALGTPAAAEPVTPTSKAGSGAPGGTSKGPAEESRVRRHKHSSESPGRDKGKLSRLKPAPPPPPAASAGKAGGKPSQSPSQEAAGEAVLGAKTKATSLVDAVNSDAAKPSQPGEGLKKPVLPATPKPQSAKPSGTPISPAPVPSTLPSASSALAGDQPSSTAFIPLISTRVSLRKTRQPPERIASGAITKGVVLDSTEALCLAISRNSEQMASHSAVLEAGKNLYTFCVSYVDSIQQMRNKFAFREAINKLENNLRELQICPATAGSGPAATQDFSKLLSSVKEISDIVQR
Sequence of Fibroblast growth factor receptor 3 (Homo sapiens) (P22607 23-806 limits assumed): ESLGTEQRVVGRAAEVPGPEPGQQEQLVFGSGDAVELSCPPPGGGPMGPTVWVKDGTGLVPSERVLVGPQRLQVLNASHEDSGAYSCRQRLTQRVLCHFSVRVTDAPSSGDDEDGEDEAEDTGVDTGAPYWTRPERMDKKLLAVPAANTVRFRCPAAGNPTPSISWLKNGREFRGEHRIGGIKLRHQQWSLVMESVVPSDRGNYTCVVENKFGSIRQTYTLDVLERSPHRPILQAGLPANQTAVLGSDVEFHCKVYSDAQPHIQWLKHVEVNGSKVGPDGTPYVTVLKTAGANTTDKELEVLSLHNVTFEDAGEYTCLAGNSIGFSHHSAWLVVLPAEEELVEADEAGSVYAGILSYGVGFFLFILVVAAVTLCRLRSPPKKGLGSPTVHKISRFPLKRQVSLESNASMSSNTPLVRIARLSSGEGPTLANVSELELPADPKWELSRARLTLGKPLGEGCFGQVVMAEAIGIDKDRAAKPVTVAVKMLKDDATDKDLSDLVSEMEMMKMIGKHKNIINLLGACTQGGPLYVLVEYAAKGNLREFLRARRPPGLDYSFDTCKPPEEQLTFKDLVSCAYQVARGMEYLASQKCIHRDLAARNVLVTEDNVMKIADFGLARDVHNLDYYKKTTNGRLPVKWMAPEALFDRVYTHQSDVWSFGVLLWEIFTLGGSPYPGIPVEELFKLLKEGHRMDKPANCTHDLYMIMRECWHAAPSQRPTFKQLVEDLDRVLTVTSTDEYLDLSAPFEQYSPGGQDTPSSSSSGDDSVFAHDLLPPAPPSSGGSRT
Sequence of Serine/threonine-protein kinase PAK 2 (Homo sapiens) (Q13177 whole entry, the tested form may be a part): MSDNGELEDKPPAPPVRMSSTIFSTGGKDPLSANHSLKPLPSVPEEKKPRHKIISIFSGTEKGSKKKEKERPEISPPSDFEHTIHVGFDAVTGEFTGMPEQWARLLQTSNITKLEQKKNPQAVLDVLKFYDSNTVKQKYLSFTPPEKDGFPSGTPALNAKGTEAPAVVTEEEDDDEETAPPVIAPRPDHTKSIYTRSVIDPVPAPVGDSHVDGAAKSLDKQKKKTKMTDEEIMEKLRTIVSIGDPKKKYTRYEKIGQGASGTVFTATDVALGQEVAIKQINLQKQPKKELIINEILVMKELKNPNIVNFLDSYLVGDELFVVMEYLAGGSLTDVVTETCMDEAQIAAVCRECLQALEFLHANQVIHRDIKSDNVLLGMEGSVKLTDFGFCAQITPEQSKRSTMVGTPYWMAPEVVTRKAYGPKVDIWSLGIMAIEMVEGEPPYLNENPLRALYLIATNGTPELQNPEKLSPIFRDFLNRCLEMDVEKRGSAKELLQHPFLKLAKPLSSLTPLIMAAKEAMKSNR
Sequence of Platelet-derived growth factor receptor alpha (Homo sapiens) (P16234 whole entry, the tested form may be a part): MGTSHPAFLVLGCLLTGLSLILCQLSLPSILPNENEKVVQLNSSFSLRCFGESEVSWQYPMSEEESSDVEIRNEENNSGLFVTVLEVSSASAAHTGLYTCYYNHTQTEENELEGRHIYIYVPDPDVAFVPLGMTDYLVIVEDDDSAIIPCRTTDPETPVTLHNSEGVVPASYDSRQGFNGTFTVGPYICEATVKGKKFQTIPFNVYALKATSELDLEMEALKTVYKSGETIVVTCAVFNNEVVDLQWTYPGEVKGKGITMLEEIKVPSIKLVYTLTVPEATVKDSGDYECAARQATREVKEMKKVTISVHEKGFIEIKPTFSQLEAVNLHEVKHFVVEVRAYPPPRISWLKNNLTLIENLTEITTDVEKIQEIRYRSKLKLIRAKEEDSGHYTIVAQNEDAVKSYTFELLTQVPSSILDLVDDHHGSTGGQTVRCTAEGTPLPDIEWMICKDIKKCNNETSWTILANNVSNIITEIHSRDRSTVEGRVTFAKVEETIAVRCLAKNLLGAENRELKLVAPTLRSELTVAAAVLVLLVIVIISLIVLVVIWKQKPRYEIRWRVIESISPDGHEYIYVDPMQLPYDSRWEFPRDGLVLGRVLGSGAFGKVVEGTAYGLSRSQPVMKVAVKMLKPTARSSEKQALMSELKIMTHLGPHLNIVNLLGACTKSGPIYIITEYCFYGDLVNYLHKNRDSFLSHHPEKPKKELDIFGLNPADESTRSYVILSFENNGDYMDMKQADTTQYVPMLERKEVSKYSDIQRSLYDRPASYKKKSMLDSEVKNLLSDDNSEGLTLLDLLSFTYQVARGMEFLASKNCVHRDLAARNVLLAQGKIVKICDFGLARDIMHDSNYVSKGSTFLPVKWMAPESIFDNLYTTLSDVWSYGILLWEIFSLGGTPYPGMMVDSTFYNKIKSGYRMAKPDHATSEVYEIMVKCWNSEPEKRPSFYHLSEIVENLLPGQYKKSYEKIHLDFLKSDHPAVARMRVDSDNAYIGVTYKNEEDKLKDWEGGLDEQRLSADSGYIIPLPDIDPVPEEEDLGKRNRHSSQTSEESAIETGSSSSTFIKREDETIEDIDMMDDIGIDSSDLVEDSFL

With `Clc1ccc(C2(c3ccc(-c4ncnc5[nH]cnc45)cc3)CCNCC2)cc1`, the inhibition (commonly the share of the control response that was lost under treatment) in assay [1] is 13%.
Turning to `c1nc(N2CCOCC2)c2nc[nH]c2n1`, the inhibition in the assay listed under Homo sapiens worked out at 84.5%.
For the compound `NCCc1ccc(-c2ncnc3[nH]cnc23)cc1`, in assay [2], the inhibition was 50.5%.
On to `NCC1CN(c2ncnc3[nH]c4cnccc4c23)CCO1` (stereo unspecified), for which the inhibition in assay [3] is 55.5%; in [4], 23%.
Take `NCC1CCN(c2ncnc3[nH]ccc23)CC1`: the values for the inhibition in assay [5], in assay [6] and in [7] were 73%, 0.5% and 57.5%, respectively.
Take `NC1(Cc2ccc(Cl)cc2)CCN(c2ncnc3[nH]ccc23)CC1`: in [8], the inhibition was found to be 0%.
As to `NC1CCN(c2ncnc3[nH]ccc23)CC1`, the inhibition in assay [9] worked out at 3.5%.
As for `CNCc1ccc(-c2ncnc3[nH]cnc23)cc1`, in assay [10], the inhibition came out at 88%.
